Here are results for 2 compounds from US20230158155A1, “Cell Surface Receptor Binding Compounds and Conjugates” (priority 2020, published 2023).

The target in data set [1] is T1, recombinant human CI-M6PR protein (Homo sapiens, UniProt P11717).
T1 construct: purchased R&D 6418-GR-050
The data set can be described thus: Human CI-M6PR binding assay (ELISA). As to conditions: conjugates of ligand linkers. The method, then: Nunc black solid bottom MaxiSorp plates were allowed to incubate overnight at 4° C. coated with […] of recombinant human CI-M6PR protein (R&D, 6418-GR-050) in 50 μL PBS. The next day, coating was decanted and plates were washed 3× with PBS. Wells were blocked with 350 μL of 3% BSA-PBS for 1 hour at room temperature. […] 50 μL of diluted conjugates were added to the plate and allowed to incubate at room temperature for 2 hours. After incubation, solutions in plate were decanted and washed with 350 μL of 0.05% PBS-Tween20 three times, drying the plate each wash on a clean paper towel. 50 μL of peroxidase AffiniPure Mouse Anti-Human IgG (Jackson Immuno, 209-035-088) diluted in 3% BSA-PBS to […] was added to the plate and allowed to incubate for 1 hour at room temperature in the dark. After incubation, solutions in plate were decanted and washed with 350 μL of 0.05% PBS-Tween20 3 times, drying the plate each wash on a clean paper towel. […] 50 μL of QuantaBlu solution was added to wells and allowed to incubate for 5-10 minutes at room temperature. After incubation, plates were read on a Perkin Elmer EnVision using photometric 340 and Umbelliferone 460 filter sets for excitation and emission, respectively. Data analysis and non-linear curve-fitting was performed using GraphPad Prism.

Data set [2] can be described thus: Serum pharmacokinetic analysis of rIgG1 (anti-IgG2a) antibody conjugates. It counts as in vivo. Conditions: C57B6 mice, intravenous, 10 μg/mouse, 0.5-24 hours, FIGS. 20A-20C. Here is the method:
A pharmacokinetic analysis of the rIgG1 (anti-IgG2a) antibody conjugates described in the previous example was performed in mice. In particular, C57B6 mice were intravenously administered each rIgG1 antibody conjugate at 10 μg/mouse (5 mice per group). Blood was collected at 0.5, 1, 2, 6, and 24 hours and serum rIgG1 was analyzed using an ELISA kit (Abcam) according to the manufacturer's instructions. Samples were run across 3 different plates with unconjugated rIgG1 controls (UNLB-anti-IgG2a rIgG1) included on all 3 plates.

Data set [3] deals with Jurkat cells. The data set can be described thus: Conjugate-mediated uptake of IgG2a-Alexa488 into Jurkat cells (flow cytometry). Conditions: anti-IgG2a conjugates, 1 hour and 24 hours, FIGS. 21-22. It counts as cell-based. The method, then:
The anti-IgG2a conjugates were bound to IgG2a-Alexa488, as follows: equal molar ratios of anti-IgG2a and IgG2a-Alexa488 were added in tissue culture media for 30 minutes at room temperature. The resulting anti-IgG2a:IgG2a antibody-Alexa488 compositions were added to Jurkat cells (100 k cells/50 ul per well, n=2), and Alexa488 fluorescence levels were measured (via Alexa488 measurement) at 1 hour and 24 hours by flow cytometry. Because Alexa488 accumulates in cells, this presents a way to measure total intracellular uptake by cells over time.

T1 sequence (P11717 41-2491): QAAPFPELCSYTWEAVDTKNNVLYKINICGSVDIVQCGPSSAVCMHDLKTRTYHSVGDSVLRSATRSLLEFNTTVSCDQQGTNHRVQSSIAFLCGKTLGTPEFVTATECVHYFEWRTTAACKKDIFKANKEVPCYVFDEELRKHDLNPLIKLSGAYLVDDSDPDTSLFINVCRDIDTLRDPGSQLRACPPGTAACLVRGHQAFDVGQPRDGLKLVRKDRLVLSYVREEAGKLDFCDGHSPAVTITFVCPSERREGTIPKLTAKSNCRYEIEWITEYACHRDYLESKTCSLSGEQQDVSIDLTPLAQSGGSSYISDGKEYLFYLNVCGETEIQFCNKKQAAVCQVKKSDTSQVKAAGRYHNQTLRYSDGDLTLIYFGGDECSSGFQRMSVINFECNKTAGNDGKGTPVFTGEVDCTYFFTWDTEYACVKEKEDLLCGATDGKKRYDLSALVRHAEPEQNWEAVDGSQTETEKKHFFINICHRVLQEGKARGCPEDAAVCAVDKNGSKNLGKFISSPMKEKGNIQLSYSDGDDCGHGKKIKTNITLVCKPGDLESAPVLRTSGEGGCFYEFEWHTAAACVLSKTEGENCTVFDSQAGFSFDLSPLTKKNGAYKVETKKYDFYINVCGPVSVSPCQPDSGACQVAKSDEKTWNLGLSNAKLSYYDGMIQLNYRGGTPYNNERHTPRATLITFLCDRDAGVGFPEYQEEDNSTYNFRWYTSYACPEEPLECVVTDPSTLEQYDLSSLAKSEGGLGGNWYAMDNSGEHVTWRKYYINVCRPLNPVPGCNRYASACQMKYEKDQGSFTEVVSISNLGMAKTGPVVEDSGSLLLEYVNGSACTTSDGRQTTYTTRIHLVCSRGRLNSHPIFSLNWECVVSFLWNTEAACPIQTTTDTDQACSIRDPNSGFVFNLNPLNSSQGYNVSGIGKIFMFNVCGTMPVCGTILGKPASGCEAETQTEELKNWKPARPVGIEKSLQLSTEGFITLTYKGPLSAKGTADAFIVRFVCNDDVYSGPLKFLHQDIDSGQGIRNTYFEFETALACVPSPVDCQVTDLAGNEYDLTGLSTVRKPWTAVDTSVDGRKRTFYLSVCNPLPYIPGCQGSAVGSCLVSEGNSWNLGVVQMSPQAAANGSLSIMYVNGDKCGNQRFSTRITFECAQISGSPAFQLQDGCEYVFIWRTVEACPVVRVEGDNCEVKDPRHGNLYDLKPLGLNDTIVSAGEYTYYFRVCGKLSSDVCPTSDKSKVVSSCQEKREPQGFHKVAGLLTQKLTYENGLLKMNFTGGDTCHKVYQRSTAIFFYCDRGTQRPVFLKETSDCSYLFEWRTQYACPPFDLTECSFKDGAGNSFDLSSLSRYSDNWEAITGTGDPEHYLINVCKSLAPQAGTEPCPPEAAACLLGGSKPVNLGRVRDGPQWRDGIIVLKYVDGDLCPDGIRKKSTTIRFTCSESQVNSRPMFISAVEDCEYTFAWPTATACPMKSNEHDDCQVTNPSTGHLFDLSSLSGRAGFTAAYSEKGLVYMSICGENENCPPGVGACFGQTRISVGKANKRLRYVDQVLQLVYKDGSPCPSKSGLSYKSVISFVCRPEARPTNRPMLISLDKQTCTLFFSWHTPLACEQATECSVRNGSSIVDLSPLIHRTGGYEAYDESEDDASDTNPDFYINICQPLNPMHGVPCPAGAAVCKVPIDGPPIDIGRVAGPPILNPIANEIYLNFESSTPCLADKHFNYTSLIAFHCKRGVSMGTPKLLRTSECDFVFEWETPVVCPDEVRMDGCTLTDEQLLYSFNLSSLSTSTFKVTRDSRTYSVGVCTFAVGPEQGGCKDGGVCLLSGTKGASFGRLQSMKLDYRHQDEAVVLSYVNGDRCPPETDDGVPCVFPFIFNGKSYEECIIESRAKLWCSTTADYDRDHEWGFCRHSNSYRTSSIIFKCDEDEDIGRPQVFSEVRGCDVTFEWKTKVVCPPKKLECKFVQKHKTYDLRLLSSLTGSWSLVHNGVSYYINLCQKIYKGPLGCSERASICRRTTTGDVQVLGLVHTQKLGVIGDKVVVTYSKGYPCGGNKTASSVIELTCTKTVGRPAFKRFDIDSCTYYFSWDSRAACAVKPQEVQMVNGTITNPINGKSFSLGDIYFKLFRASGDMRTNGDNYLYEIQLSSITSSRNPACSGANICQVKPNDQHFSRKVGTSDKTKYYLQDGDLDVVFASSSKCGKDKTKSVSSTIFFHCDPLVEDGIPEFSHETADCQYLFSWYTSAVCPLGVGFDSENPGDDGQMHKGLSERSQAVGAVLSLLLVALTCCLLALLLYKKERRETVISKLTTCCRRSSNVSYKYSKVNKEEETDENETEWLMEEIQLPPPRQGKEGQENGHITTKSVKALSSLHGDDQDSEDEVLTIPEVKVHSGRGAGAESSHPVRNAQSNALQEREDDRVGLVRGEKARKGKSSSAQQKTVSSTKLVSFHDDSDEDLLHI

With `O=C(CCOCCn1cc(CCO[C@H]2O[C@H](CCP(=O)(O)O)[C@@H](O)[C@H](O)[C@@H]2O)nn1)Oc1c(F)c(F)c(F)c(F)c1F` [Compound I-11], in data set [1], the “binding affinity to M6PR compared to Compound I-7” value is “weaker binding affinity”. Moreover, in data set [2], the “half life (serum rIgG1) compared to Compound I-7 conjugate” value is recorded as “longer half life”. Further, the “uptake of IgG2a-Alexa488 into Jurkat cells” value in data set [3] was “sufficiently robust uptake”.

As for `O=C(CCOCCOCCOCCN(CCOCCOCCOCCn1cc(CCC[C@H]2O[C@H](CCP(=O)(O)O)[C@@H](O)[C@H](O)[C@@H]2O)nn1)CCOCCOCCOCCn1cc(CCO[C@H]2O[C@H](CCP(=O)(O)O)[C@@H](O)[C@H](O)[C@@H]2O)nn1)Oc1c(F)c(F)c(F)c(F)c1F` [Compound I-12], the “binding affinity to M6PR compared to Compound I-7” value in data set [1] is given as “weaker binding affinity”. In addition, the “half life (serum rIgG1) compared to Compound I-7 conjugate” value in data set [2] is given as “longer half life”. For the same compound, the “uptake of IgG2a-Alexa488 into Jurkat cells” value in data set [3] was “sufficiently robust uptake”.
